Columns and labels:
Type in all cases: in vivo, mouse
IL-6 = experiment: Serum IL-6 production in mice after single s.c. injection (7TD1 bioassay); settings: serum 4 h post injection
Procedure: Description of Biological Assays Interleukin 6(IL-6) assay for structure function analysis--Test compounds are dissolved in water and administered subcutaneously in 0.2 ml to deliver a dose of 0.1-10 mg/kg. The less soluble compounds are first dissolved in 100% ethanol and then brought to the appropriate concentration in water. Four hours post injection, the mice are bled and the serum is retrieved. The IL-6 dependent cell line 7TDl is used to assay serial dilutions of sera for IL-6 content. 7TDl cells (1×10^4) are placed in microtiter wells and incubated at 37° C. for 72 hours with standard recombinant mouse IL-6 or with dilutions of serum to be tested. Over the last 6 hours, the cells are pulsed with ^3 H-Tdr (μci). Cells are then harvested and the degree of proliferation determined by the uptake of ^3 H-Tdr as measured by liquid scintillation spectrometry. The concentration of IL-6 in serum is calculated from standard curves utilizing recombinant IL-6 from R&D Systems Inc. and are reported in units of IL-6 activity as defined by the manufacturer.

CSF = experiment: Serum colony stimulating factor (CSF) assay in mice; settings: serum 4 hours after injection
Procedure: Colony forming assays Granulocyte-Macrophage (CFU-GM)--Mice are treated with 150 mg/kg of 5-Fu and treatment with test compound begins 24 hrs. later. On consecutive days, mice are killed by cervical dislocation and the femurs removed under sterile conditions. Femurs are flushed with 1 ml of ice cold medium (Iscove's supplemented with 20% FCS, 1% penicillin-streptomycin, 1% glutamine and 5×10^-5 M 2-mercaptoethanol). Bone marrow cells (5×10^5) are then plated in 12×75 mm tissue culture plates in 3 ml of warm ararose (3%) in Iscove's medium with 100 Units/ml of recombinant mouse GM-CSF purchased from Genzyme (Boston, Mass.). Plates are incubated for 7 days at 37° C. in 5% CO2. After 7 days, colonies of 50 cells or greater are enumerated under a dissecting microscope.
Bone marrow cells are prepared as described above for the CFU-GM assay. The cells are then incubated in soft agar with an 0.3% final concentration of serum taken from mice 4 hours after injection with test compounds. After 7 days of incubation at 37° C., the number of colony forming (CFU) cells per 10^5 plated bone marrow cells is determined by counting colonies of more than 50 cells under a dissecting microscope. The data are reported as CFU/10^5 bone marrow cells.

neutrophils [1] = experiment: Neutrophil recovery in 5-FU treated mice; settings: mouse, in vivo
Procedure: Circulating Neutrophil Assay--Mice are treated with 5-FU (150 mg/kg) and beginning 24 hrs. later, treated daily with the test compound. Mice are bled daily by retroorbital puncture in heparinized capillary tubes. Circulating WBC counts are determined by Coulter counter. Blood smears are stained with Wright-Geimsa solution and the percentage circulating neutrophils determined by differential counting under a microscope.
5-Fluorouracil (5-FU) Induced Neutropenia In Mice--Mice are treated ip with 150 mg/kg of the chemotherapy agent 5-FU which induces a severe loss of neutrophils in the peripheral blood 5-6 days later. Twenty-four hrs. after the dose, treatment with the test compounds is initiated. The effect of the test compounds on recovery of neutrophil progenitor cells in the bone marrow is determined by the CFU-GM assay. The recovery of circulating neutrophils is followed by differential staining of the peripheral blood.
*Data from 10 mice/group on day 7 post treatment with 150 mg/kg of 5FU.
Beginning 24 hrs. after 5FU dose, mice were treated daily with test
compound at concentrations indicated. Neutrophil count for normal mice (n
**Mice treated with 5FU and vehicle only.

neutrophils [2] = experiment: Neutrophil recovery in 5-FU treated mice; settings: day 7 post 5FU, n = 6 mice/group, 0 dose 54 ± 22

## CCCCCCC(=O)NC(CNC(=O)N[C@@H](CCCC(NC(=O)OC(C)(C)C)C(=O)O)C(=O)N[C@H](C)C(=O)O)C(=O)O (stereo partly shown) [Example 83]
IL-6; 1.0 mg/kg s.c.
  IL-6: 332 ± 38 U/ml
IL-6; 10.0 mg/kg s.c.
  IL-6: 1818 ± 243 U/ml
CSF; 1.0 mg/kg
  CSF production, CFU/100,000 Bone Marrow Cells: 204 ± 9 CFU/100,000 Bone Marrow Cells
CSF; 10.0 mg/kg
  CSF production, CFU/100,000 Bone Marrow Cells: 123 ± 22 CFU/100,000 Bone Marrow Cells

## CCCCCCC(=O)N[C@H](C(=O)O)[C@@H](C)OC(=O)N[C@@H](CCC[C@@H](N)C(=O)O)C(=O)N[C@H](C)C(=O)O (relative stereo) [Example 31, R-(R*,S*)]-N-(R)-6-carboxy-N^2-[[2-carboxy-1-methyl-2-[(1-oxoheptyl)amino]ethoxy]carbonyl]-L-lysyl]-D-Alanine]
IL-6; 0.1 mg/kg s.c.
  IL-6: 294 ± 24 U/ml

## CCCCCCC(=O)NC(CNC(=O)N[C@@H](CCCC(NC(=O)OC(C)(C)C)C(=O)OC)C(=O)N[C@H](C)C(=O)OC)C(=O)O (stereo partly drawn) [Example 81, N-N^2-[[[2-carboxy-2-[(1-oxoheptyl)amino]ethyl]amino]carbonyl]-N^6-[(1,1-dimethylethoxy)carbonyl]-6-(methoxycarbonyl)-L-lysyl-D-alanine methyl ester]
IL-6; 1.0 mg/kg s.c.
  IL-6: 56 ± 19 U/ml
IL-6; 10.0 mg/kg s.c.
  IL-6: 199 ± 23 U/ml
CSF; 1.0 mg/kg
  CSF production, CFU/100,000 Bone Marrow Cells: 69 ± 14 CFU/100,000 Bone Marrow Cells
CSF; 10.0 mg/kg
  CSF production, CFU/100,000 Bone Marrow Cells: 101 ± 7 CFU/100,000 Bone Marrow Cells

## CCCCCCC(=O)NC(CNC(=O)N[C@@H](CCCC(N)C(=O)O)C(=O)N[C@H](C)C(=O)O)C(=O)O (stereo partly shown) [Example 84]
IL-6; 0.1 mg/kg s.c.
  IL-6: 1963 ± 97 U/ml
IL-6; 1.0 mg/kg s.c.
  IL-6: 3865 ± 688 U/ml
IL-6; 10.0 mg/kg s.c.
  IL-6: 2512 ± 209 U/ml
CSF; 0.1 mg/kg
  CSF production, CFU/100,000 Bone Marrow Cells: 129 ± 14 CFU/100,000 Bone Marrow Cells
CSF; 1.0 mg/kg
  CSF production, CFU/100,000 Bone Marrow Cells: 118 ± 15 CFU/100,000 Bone Marrow Cells
CSF; 10.0 mg/kg
  CSF production, CFU/100,000 Bone Marrow Cells: 131 ± 10 CFU/100,000 Bone Marrow Cells
Neutrophils [1]
  neutrophil recovery in 5-FU treated mice (in words): induce neutrophil recovery in 5-FU treated mice
Neutrophils [2]; 1 μg/kg daily
  Neutrophils/cu. mm.: 427 ± 211 /cu. mm.
Neutrophils [2]; 10 μg/kg daily
  Neutrophils/cu. mm.: 570 ± 224 /cu. mm.
Neutrophils [2]; 100 μg/kg daily
  Neutrophils/cu. mm.: 2194 ± 629 /cu. mm.

## CCCCOc1ccc(CC(=O)NC(C(=O)O)C(C)OC(=O)N[C@@H](CCC[C@@H](N)C(=O)O)C(=O)N[C@H](C)C(=O)O)cc1 (stereo partly drawn) [Example 34, N-[N^2-[[2-[[(4-Butoxyphenyl)acetyl]amino]-2-carboxy-1-methylethoxy]carbonyl]-(R)-6-carboxy-L-lysyl]-D-Alanine]
IL-6; 0.1 mg/kg s.c.
  IL-6: 3610 ± 347 U/ml
IL-6; 1.0 mg/kg s.c.
  IL-6: 5063 ± 302 U/ml

## CCCCCCC(=O)N[C@@H](C(=O)O)[C@H](C)OC(=O)N[C@@H](CCC[C@@H](N)C(=O)O)C(=O)N[C@H](C)C(=O)O [Example 29, [S-(R*,S*)]-N-[(R)-6-carboxy-N^2-[[2-carboxy-1-methyl-2-[(1-oxoheptyl)amino]ethoxy]carbonyl]-L-lysyl]-D-Alanine]
IL-6; 0.1 mg/kg s.c.
  IL-6: 0 U/ml
IL-6; 1.0 mg/kg s.c.
  IL-6: 203 U/ml
IL-6; 10.0 mg/kg s.c.
  IL-6: 537 U/ml
CSF; 0.1 mg/kg
  CSF production, CFU/100,000 Bone Marrow Cells: 0 ± 0 CFU/100,000 Bone Marrow Cells
CSF; 1.0 mg/kg
  CSF production, CFU/100,000 Bone Marrow Cells: 101 ± 46 CFU/100,000 Bone Marrow Cells

## CCCCCCC(=O)NC(CNC(=O)N[C@@H](CCCC(N)C(=O)OC)C(=O)N[C@H](C)C(=O)OC)C(=O)OCc1ccccc1 (stereo partly shown) [Example 80]
IL-6; 1.0 mg/kg s.c.
  IL-6: 1712 ± 168 U/ml
IL-6; 10.0 mg/kg s.c.
  IL-6: 3624 ± 611 U/ml
CSF; 1.0 mg/kg
  CSF production, CFU/100,000 Bone Marrow Cells: 91 ± 3 CFU/100,000 Bone Marrow Cells
CSF; 10.0 mg/kg
  CSF production, CFU/100,000 Bone Marrow Cells: 121 ± 9 CFU/100,000 Bone Marrow Cells

## CCCCCCC(=O)N[C@H](C(=O)O)[C@H](C)OC(=O)N[C@@H](CCC[C@@H](N)C(=O)O)C(=O)N[C@H](C)C(=O)O [Example 30, [S-(R*,R*)]-N-(R)-6-carboxy-N^2-[[2-Carboxy-1-methyl-2-[(1-oxoheptyl)amino]ethoxy]carbonyl]-L-lysyl]-D-Alanine]
IL-6; 0.1 mg/kg s.c.
  IL-6: 328 ± 107 U/ml

## CCCCCC1CCC(C(=O)NC(C(=O)O)C(C)OC(=O)N[C@@H](CCC[C@@H](N)C(=O)O)C(=O)N[C@H](C)C(=O)O)CC1 (stereo partly drawn) [Example 33, [(R)-6-Carboxy-N^2-[[2-carboxy-1-methyl-2-[[(4-pentylcyclohexyl)carbonyl]amino]ethoxy]carbonyl]-L-lysyl]-D-Alanine]
IL-6; 0.1 mg/kg s.c.
  IL-6: 1651 ± 100 U/ml
IL-6; 1.0 mg/kg s.c.
  IL-6: 3767 ± 457 U/ml

## CCCCCCC(=O)NC(CNC(=O)N[C@@H](CCCC(N)C(=O)OC)C(=O)N[C@H](C)C(=O)OC)C(=O)O (stereo partly shown) [Example 82]
IL-6; 1.0 mg/kg s.c.
  IL-6: 2181 ± 92 U/ml
IL-6; 10.0 mg/kg s.c.
  IL-6: 3188 ± 345 U/ml
CSF; 1.0 mg/kg
  CSF production, CFU/100,000 Bone Marrow Cells: 108 ± 11 CFU/100,000 Bone Marrow Cells
CSF; 10.0 mg/kg
  CSF production, CFU/100,000 Bone Marrow Cells: 115 ± 3 CFU/100,000 Bone Marrow Cells
